The target of assay [1] is Opioid receptors; mu & delta (Homo sapiens, UniProt P41143+P35372). The experiment in a line: Ratio of mu/delta-opioid receptors Binding affinity. Format: protein assay.
Assay [2] deals with T1, Kappa-type opioid receptor (Homo sapiens, UniProt P41145). The experiment in a line: Agonistic activity towards Opioid receptor kappa 1. Format: functional.
Assay [3] concerns the target T2, Delta-type opioid receptor (Homo sapiens, UniProt P41143). Put plainly: Binding affinity for human Opioid receptor delta 1 transfected into chinese hamster ovary cells by displacing [3H]CI-DPDPE radioligand. The class given is cell-based.
For assay [4], the target named is T1, Kappa-type opioid receptor. The experiment in a line: % stimulation of [35S]GTP-gamma-S, binding of compound in recombinant human Opioid receptor kappa 1 transfected into CHO cells. The class given is functional, cell-based. A general note: Binding of GTPγS marks nucleotide exchange on a G protein.
The target in assay [5] is T2, Delta-type opioid receptor. Put plainly: Agonistic activity towards Opioid receptor delta 1. Format: functional.
The target in assay [6] is T3, Mu-type opioid receptor (Homo sapiens, UniProt P35372). Put plainly: Binding affinity for human Opioid receptor mu 1 transfected into chinese hamster ovary cells by displacing [3H]DAMGO radioligand. The class given is cell-based.
The target of assay [7] is T2, Delta-type opioid receptor. The experiment in a line: % stimulation of [35S]GTP-gamma-S, binding in recombinant human Opioid receptor delta 1 transfected into CHO cells. The class given is functional, cell-based.
The target in assay [8] is Opioid receptors; delta & kappa (Homo sapiens, UniProt P41145+P41143). Put plainly: Ratio of kappa/delta-opioid receptors Binding affinity. The class given is protein assay.
Assay [9] has as its target T1, Kappa-type opioid receptor. The experiment in a line: Binding affinity in recombinant human Opioid receptor kappa 1 transfected into chinese hamster ovary cells by displacing [3H]U-69593 radioligand. Format: cell-based.
Assay [10] concerns the target T3, Mu-type opioid receptor. The experiment in a line: % stimulation of [35S]GTP-gamma-S, binding in recombinant human Opioid receptor mu 1 transfected into CHO cells. Format: functional, cell-based.
For assay [11], the target named is T3, Mu-type opioid receptor. The experiment in a line: Effective concentration agonistic activity towards Opioid receptor mu 1. Format: functional.
Assay [12] has as its target T1, Kappa-type opioid receptor. The experiment in a line: Agonistic activity towards opioid receptor kappa 1. Format: functional.

The results in this text go back to ChEMBL document CHEMBL1145844 (J Med Chem, 2003).

Usually EC50 stands for the concentration giving half of the maximal effect. Higher therefore signals a less potent agent.

T3 sequence (P35372 whole entry): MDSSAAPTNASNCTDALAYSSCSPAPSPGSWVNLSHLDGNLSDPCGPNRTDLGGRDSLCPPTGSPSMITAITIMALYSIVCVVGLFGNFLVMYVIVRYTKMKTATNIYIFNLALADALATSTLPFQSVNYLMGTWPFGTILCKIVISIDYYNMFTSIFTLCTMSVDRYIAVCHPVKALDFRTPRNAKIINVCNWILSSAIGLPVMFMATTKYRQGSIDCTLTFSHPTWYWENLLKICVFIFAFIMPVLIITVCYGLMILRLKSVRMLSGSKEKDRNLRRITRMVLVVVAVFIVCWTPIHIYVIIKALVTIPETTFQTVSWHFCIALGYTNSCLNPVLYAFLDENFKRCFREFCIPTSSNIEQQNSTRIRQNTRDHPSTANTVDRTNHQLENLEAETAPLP
T2 sequence (P41143 whole entry): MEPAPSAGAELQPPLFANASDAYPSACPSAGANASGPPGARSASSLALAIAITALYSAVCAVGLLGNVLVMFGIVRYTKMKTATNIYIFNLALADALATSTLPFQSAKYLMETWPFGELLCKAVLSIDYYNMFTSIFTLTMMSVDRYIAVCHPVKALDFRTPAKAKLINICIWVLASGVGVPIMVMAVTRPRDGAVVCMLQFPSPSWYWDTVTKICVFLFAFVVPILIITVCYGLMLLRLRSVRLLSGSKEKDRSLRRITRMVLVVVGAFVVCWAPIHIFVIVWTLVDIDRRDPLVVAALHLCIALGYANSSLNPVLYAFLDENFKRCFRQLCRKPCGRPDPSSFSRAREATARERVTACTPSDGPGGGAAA
T1 sequence (P41145 whole entry): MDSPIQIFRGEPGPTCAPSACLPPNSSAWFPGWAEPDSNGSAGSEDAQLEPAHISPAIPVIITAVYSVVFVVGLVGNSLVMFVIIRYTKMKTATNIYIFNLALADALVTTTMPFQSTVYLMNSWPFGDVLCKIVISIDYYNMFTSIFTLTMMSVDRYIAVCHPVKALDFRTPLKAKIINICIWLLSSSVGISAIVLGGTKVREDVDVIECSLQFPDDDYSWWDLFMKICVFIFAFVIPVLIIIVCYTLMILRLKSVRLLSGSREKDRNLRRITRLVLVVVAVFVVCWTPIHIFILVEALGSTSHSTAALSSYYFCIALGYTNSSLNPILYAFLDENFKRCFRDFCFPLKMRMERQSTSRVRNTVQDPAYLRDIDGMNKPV

As to `CC(C)=CC[C@@]12Cc3c([nH]c4ccccc34)[C@]3(C)Oc4c(O)ccc5c4[C@]13CCN(C)C2C5`, the Ki in assay [1] stood at 4.9; in assay [3], 51.4 nM; on Mu-type opioid receptor [6], 254 nM; in assay [8] it was 8.6; in [9] it was 440 nM. Besides, the EC50 turned out to be 945 nM in assay [2], 90.1 nM in [5] and 1200 nM on Mu-type opioid receptor [11]. The Stimulation worked out at 31% in assay [4], 43% in assay [7] and 72% on Mu-type opioid receptor [10].
Take `COc1ccc2c(c1O)[C@]13CCN(C)C(C2)[C@]12CCC(=O)[C@H]3/C(=C/c1ccccc1)C2`: the Ki came to 0.08 in [1]; 5.5 nM in assay [3]; 0.43 nM at Mu-type opioid receptor [6]; 0.04 in assay [8]; 0.2 nM in assay [9]. Further, the EC50 in assay [2] was found to be 17.5 nM; in [5], 4.19 nM; on Mu-type opioid receptor [11], 6.7 nM. The Stimulation in [4] turned out to be 85%; in assay [7], 80%; on Mu-type opioid receptor [10], 123%.
Consider `C/C=C1\C[C@@]23Cc4c([nH]c5ccccc45)[C@@H]1[C@@]21CCN(C)C3Cc2ccc(OC)c(O)c21`, for which the Ki stood at 1.5 in [1]; 82.5 nM in assay [3]; 122 nM on Mu-type opioid receptor [6]; 2.9 in [8]; 239 nM in assay [9]. The Stimulation in assay [4] was found to be 36%; at Mu-type opioid receptor [10], 41%. The results for the EC50 (in assay [5]; in [12]; at Mu-type opioid receptor [11]) were 221 nM, 2210 nM and 1640 nM, respectively.
As for `CN1CC[C@]23c4c5ccc(O)c4O[C@@]2(C)c2[nH]c4ccccc4c2C[C@@]3(C/C=C/c2ccccc2)C1C5`, the Ki in [1] came out at 3.5; in assay [3], 12.5 nM; on Mu-type opioid receptor [6] it was 43.8 nM; in [8] it was 7.5; in [9] it was 94.2 nM. Also, the figures for the EC50 (in assay [2]; in assay [5]; at Mu-type opioid receptor [11]) were 2050 nM, 21.8 nM and 804 nM, respectively. The Stimulation in assay [4] worked out at 60%; in assay [7], 79%; at Mu-type opioid receptor [10] it was 85%.
Consider `COc1ccc2c(c1O)[C@]13CCN(C)C(C2)[C@@]12CC(=C(C)C)[C@@H]3c1[nH]c3ccccc3c1C2`, for which the Ki was 3.2 in [1]; 103 nM in assay [3]; 330 nM on Mu-type opioid receptor [6]; 0.3 in assay [8]; 28.4 nM in [9]. Moreover, the results for the EC50 (in [2]; in assay [5]; on Mu-type opioid receptor [11]) were 866 nM, 211 nM and 1020 nM, respectively. Further, the Stimulation in assay [4] turned out to be 44%; at Mu-type opioid receptor [10], 52%.
Consider `COc1ccc2c(c1O)[C@]13CCN(C)C(C2)[C@@]12C/C(=C\c1ccccc1)[C@@H]3c1[nH]c3ccccc3c1C2`, for which the Ki in assay [1] was determined as 0.4; in assay [3] it was 15.9 nM; at Mu-type opioid receptor [6] it was 6.3 nM; in [8] it was 2.2; in assay [9] it was 34.6 nM. Also, the 50% effective concentration (EC50) in [2] stood at 323 nM; in assay [5], 42.6 nM; on Mu-type opioid receptor [11] it was 44.7 nM. In addition, the Stimulation was found to be 83% in assay [4], 87% in assay [7] and 110% at Mu-type opioid receptor [10].
Consider `COc1ccc2c(c1O)[C@]13CCN(C)C(C2)[C@@]12C/C(=C(/C)c1ccccc1)[C@@H]3c1[nH]c3ccccc3c1C2`, for which the Ki in [1] was 0.6; in [3], 23.2 nM; at Mu-type opioid receptor [6], 13.4 nM; in assay [8] it was 0.03; in assay [9], 0.61 nM. In addition, the EC50 in assay [2] turned out to be 82.4 nM; in assay [5] it was 368 nM; on Mu-type opioid receptor [11], 139 nM. The results for the Stimulation (in [4]; in assay [7]; at Mu-type opioid receptor [10]) were 97%, 168% and 144%, respectively.
Regarding `COc1ccc2c(c1O)[C@]13CCN(C)C(C2)[C@]12CCC(=O)[C@H]3/C(=C(\C)c1ccccc1)C2`, the Ki in assay [1] worked out at 0.8; in [3], 5.66 nM; at Mu-type opioid receptor [6], 4.54 nM; in [8], 0.02; in [9], 0.14 nM. In addition, the half-maximal effective concentration (EC50) was found to be 3.38 nM in assay [2], 72.3 nM in assay [5] and 15.2 nM at Mu-type opioid receptor [11]. The Stimulation in [4] worked out at 116%; in assay [7], 108%; on Mu-type opioid receptor [10], 108%.
